Data set [1] deals with T1, endogenous CTSK in intact U-2 OS cells (Homo sapiens, UniProt P43235).
T1 construct: ability to label endogenous CTSK activity in intact cells; endogenous in cells; host or cells: U-2 OS
T1 sequence (P43235 115-329): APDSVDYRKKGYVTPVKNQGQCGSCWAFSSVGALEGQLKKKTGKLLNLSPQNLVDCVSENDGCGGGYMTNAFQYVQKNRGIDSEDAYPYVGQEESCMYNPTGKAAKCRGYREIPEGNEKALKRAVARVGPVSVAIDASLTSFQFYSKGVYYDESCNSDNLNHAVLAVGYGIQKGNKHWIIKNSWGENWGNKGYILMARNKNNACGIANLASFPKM
Put plainly: Labeling of endogenous CTSK in intact cells, fluorescent SDS-PAGE. It counts as cell-based. To be noted: inhibitor 5 µM, 2 h, then GD32 5 µM. The procedure:
To test probe selectivity and the ability to label endogenous CTSK activity in intact cells, three cell lines were selected: human osteosarcoma MG‐63 and U‐2 OS, and human glioblastoma U‐87 MG; all cell lines express CTSK along with other lysosomal cathepsins.^[ [44] ^] First, the ABPs were incubated with intact U‐2 OS cells for different durations of time, and the probe selectivity toward CTSK was examined, with a pan cathepsin ABP, GB123, used as a control that labels CTS B, K, L, and S in cells. After cell lysis, the probe‐labeled enzymes were resolved and detected by a fluorescent scan of the SDS‐PAGE. […] Specifically, intact MG‐63 cells required a 5 h incubation (Figure 2b,c), while U‐87 MG cells required a 2 h incubation (Figure 2d).
Figure 2 Labeling of endogenous CTSK in intact cells. a) U2‐OS cells were treated with DMSO or 5 µM of the indicated inhibitors in culture medium, for 2 h, then with indicated ABPs [5 µM] in a culture medium for indicated times, followed by cell lysis, SDS‐PAGE separation, and fluorescent scanning of the gel at 635/670 nm. An immunoblot of CTSK of the same gel is presented below. b) Intact MG63 cells were treated with GD32 5 µM in the culture media for indicated times, cell lysates were analyzed as in a. CTSK immunoblot is presented, pro and mature CTSK are indicated by arrows. c) MG63 cells and d) U87MG cells were treated with DMSO, or 5 µM of indicated inhibitors in culture medium for 2 h, followed by incubation with 5 µM of indicated probes for 5 h (GD32 and GD42) and 2 h (GB123), cell lysates were analyzed by fluorescent SDS PAGE as in a. […] In (c) a CTSK immunoblot of a representative MG63 lane on the right. e) Labeling of active mature CTSK by GD32 in A549 and U2‐0S cells in externally adjusted different pH. Cells were incubated with 5 µM GD32 for 24 h in growth media at indicated pHs, prior to the cell lysis, cell lysates were analysed as in a. CTSK immunoblot below. f) A549 cells were incubated with increasing concentrations of GD30 for 2 h at pH = 5, followed by the incubation with 5 µM GD32 for 24 h prior to the cell lysis, cell lysates were analyzed as in a. g) Intact U‐87 MG cells or U‐87 MG cell lysates were treated with 5 µM GD32 for 2 h, the intact cells were then lysed and all lysates were analyzed as in (a). h) Intact or lysates of U‐87MG were treated with GD32 for 2 h then immunoprecipitation was done with an anti‐CTSK antibody. Input (I), immunoprecipitation (IP), and output (O) were separated by a 14% SDS‐PAGE and scanned for fluorescence. The gel was then blotted and reacted with an anti‐cystatin B antibody below. ODN (Odanacatib), GB111 (GB111‐NH2), mCTSK (mature CTSK). […]
deoxycholate). After adding sample buffer, samples were boiled for 10 minutes, and analyzed […]
lysates were analyzed as described above. […]

Another data set relates to U-87 MG cells. Put plainly: Cell viability assay (methylene blue). The format is cell-based, human. To be noted: 48 h incubation. The procedure:
U-2 OS, U-87 MG, and enriched monocyte cells were grown at 370 C with 5% of CO2 in the
respective medium as described previously. Cells were seeded (1500 cells/well in 96 wells
plate) one day before the incubation with indicated probe or inhibitor at various concentrations.
After 48 h cells were fixed, and viability was measured by quantitative colorimetric assay using
methylene blue according to the procedure reported by Ben-Bassat et al. The data were
expressed as a percentage of control; data represent the mean of 2 experiments with triplicates
for each treatment (± standard deviation).
Fluorescent imaging of CTSK activity in lung tissue: Freshly resected human lung cancer and
normal lung tissues or mouse normal lung and primary lung cancer were embedded in OCT,
frozen in liquid nitrogen, and kept at - 80° C. Tissues were sectioned into 10 μm thick slices
using a cryostat (Leica). The slides were defrosted and washed with 1X PBS. Then the slides
were pretreated with DMSO or GD30 (5 µM) in buffer acetate for 1 h at 37° C. Afterward,
GD32 (0.75uM) or DMSO in buffer acetate were applied to the slides for 4 h at 37° C. Three
short washes with 1X PBS were done and the slides were left in 1X PBS for overnight
incubation at 4° C. The next day, slides were mounted with DAPI-Fluoromount-G® before
visualization by confocal microscopy. Olympus FV10i was used for human samples, whereas
Zeiss was used for mouse samples.
Details of the synthesis of the compounds
Synthesis of Compound (2)

Another data set deals with T2, CTSK (Homo sapiens, UniProt P43235).
T2 sequence (P43235 115-329): T1 sequence (P43235 115-329)
Put plainly: In vitro kinetic evaluation of cathepsin inhibition, fluorescent substrate Z-FR-AMC. The format is biochemical. From the text: (§1) used for TLC. Phosphate Buffer Saline (PBS) was purchased from Biological Industries (pH = […]
(§2) 7.4) and was used as a buffer system in all experiments if not indicated otherwise. […]
(§3) Recombinant human CTSB, CTSK, CTSL, and CTSS were supplied by B. Turk (J.
(§4) Stefan Institute).[1] […]
Fluorescent gels were scanned by a Typhoon FLA 9500 flatbed laser scanner (GE Healthcare […]
Bio-Sciences AB, Uppsala, Sweden). BioRad ChemiDox XRS+ was used for western blot […]
analysis. Olympus FV10i inverted microscope (Tokyo,Japan) with Fluoview software or Zeiss […]
Confocal LSM 980 with Airyscan (Germany) with Zen software were used for confocal […]
(§5) In vitro kinetic evaluation of labeling recombinant cathepsins:
(§6) Reactions were monitored for 30 min at 37° C in 96-well black flat-bottom microplates […]
(Greiner, Germany) using Tecan […] M1000 pro plate reader (Tecan, Switzerland), […]
(§7) substrates Z-RR-AMC (CTSL) or Z-FR-AMC (CTSS, CTSB and CTSK), and excitation and […]
emission wavelengths of 370 and 460 nm, respectively. Cathepsin concentrations in the assay were 0.4 nM (CTSK) or 5 nM (CTSS, CTSB, and CTSL). The buffer was 100 mM Na2HPO4/NaH2PO4, 50 mM NaCl, 5 mM DTT, 0,1% Peg-6000, pH 6. For irreversible inhibitors, reaction data were fitted to the one-phase association formula in GraphPad Prism 9 software: Y=Y0 + (Plateau-Y0)*(1-exp(-K*X)) where in this case Y0 and Y represent fluorescence signal at times 0 and t, respectively, K represent the observed reaction rate kobs and X the inhibitor concentration. Inactivation rates at each inhibitor concentration were […]
maximal rate of inactivation (kinact) was obtained as the asymptote from equation […]
for each X, and Kiapp is the apparent inhibition constant. Ki values were calculated from IC50 or from Kiapp using formulas Ki = Kiapp / (1 + Km/S) and IC50 = E0/2 + Kiapp, where Km stands for Michalis-Menten constant, S for substrate concentration and E0 for cathepsin concentration.
(§8) The highest inhibitor concentrations in the assay were 50 µM. Measurements were performed in several independent duplicates. Average values are presented with standard deviations. […]

In the next data set the target is CTSS (Homo sapiens, UniProt P25774). Described as above. The format is biochemical. On the procedure:
as §1, §2, §3, §4, §5, §6
(Greiner, Germany) using Tecan INFINITE M1000 pro plate reader (Tecan, Switzerland), […]
as §7
emission wavelengths of 370 and 460 nm, respectively. Cathepsin concentrations in the assay were 0.4 nM (CTSK) or 5 nM (CTSS, CTSB, and CTSL). The buffer was 100 mM Na2HPO4/NaH2PO4, 50 mM NaCl, 5 mM DTT, 0,1% Peg-6000, pH 6. For irreversible inhibitors, reaction data were fitted to the one-phase association formula in GraphPad Prism 9 software: Y=Y0 + (Plateau-Y0)*(1-exp(-K*X)) where in this case Y0 and Y represent fluorescence signal at times 0 and t, respectively, K represent the observed reaction rate kobs and X the inhibitor concentration. Inactivation rates at each inhibitor concentration were obtained by subtracting the inactivation observed in the control sample: kobs – kctrl. The maximal rate of inactivation (kinact) was obtained as the asymptote from equation Y = kinact*X/(Kiapp + X) where X is inhibitor concentration, Y is the observed inactivation rate for each X, and Kiapp is the apparent inhibition constant. Ki values were calculated from IC50 or from Kiapp using formulas Ki = Kiapp / (1 + Km/S) and IC50 = E0/2 + Kiapp, where Km stands for Michalis-Menten constant, S for substrate concentration and E0 for cathepsin concentration.
as §8

SMILES strings stand for the structures.

CTSS, sequence (P25774 115-331): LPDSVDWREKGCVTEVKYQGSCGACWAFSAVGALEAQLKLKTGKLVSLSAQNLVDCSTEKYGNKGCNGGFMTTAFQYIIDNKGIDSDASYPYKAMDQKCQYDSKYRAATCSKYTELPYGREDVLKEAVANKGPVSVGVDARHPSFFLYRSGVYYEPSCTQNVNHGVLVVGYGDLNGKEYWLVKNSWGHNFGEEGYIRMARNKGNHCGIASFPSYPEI

Consider `Cc1cccc(C)c1C(=O)OCC(=O)[C@H](CCCCN)NC(=O)[C@H](Cc1ccccc1)NC(=O)OCc1ccccc1` [GB111‐NH2, reference compound], for which the “effect of inhibitor preincubation on GD32-labeled CTSK band” value in data set [1] is “depletion of the CTSK‐specific band”. Besides, the cytotoxicity entry with U-87 MG cells is “exhibited cytotoxicity”.
A word on the IC50: it is the concentration needed to halve the response being measured. With `CC(C)(F)C[C@H](N[C@@H](c1ccc(-c2ccc(S(C)(=O)=O)cc2)cc1)C(F)(F)F)C(=O)NC1(C#N)CC1` [ODN, odanacatib, reference compound], the mode of inhibition entry at CTSK (CTSK) is “Reversible [Tight binding]”; on CTSS (CTSS), “Reversible”. Moreover, the IC50 amounted to 0.94 nM at CTSK (CTSK 0.4 nM, tight binding) and 140 nM against CTSS (CTSS 5 nM). Besides, the “effect of inhibitor preincubation on GD32-labeled CTSK band” value in data set [1] is reported as “depletion of the CTSK‐specific band”.
